1 compound from PubChem BioAssay AID463151 (The Scripps Research Institute Molecular Screening Center, 2010) can be followed below.

The target of the assay is Nuclear receptor ROR-gamma (Homo sapiens) (UniProt P51449). Description: RORγ reporter activity suppression – cell-based, luminescence, dose response, selectivity assay for RORA inverse agonist project, late-stage follow-up (AID 463151). Conditions: cell-based RORG luciferase reporter.

Each structure is given as a SMILES string. Active and inactive are the calls of the source. How the calls were made is not given here.

Usually IC50 stands for the midpoint of a concentration-inhibition curve.

Nuclear receptor ROR-gamma (Homo sapiens), sequence (P51449 whole entry, looked up): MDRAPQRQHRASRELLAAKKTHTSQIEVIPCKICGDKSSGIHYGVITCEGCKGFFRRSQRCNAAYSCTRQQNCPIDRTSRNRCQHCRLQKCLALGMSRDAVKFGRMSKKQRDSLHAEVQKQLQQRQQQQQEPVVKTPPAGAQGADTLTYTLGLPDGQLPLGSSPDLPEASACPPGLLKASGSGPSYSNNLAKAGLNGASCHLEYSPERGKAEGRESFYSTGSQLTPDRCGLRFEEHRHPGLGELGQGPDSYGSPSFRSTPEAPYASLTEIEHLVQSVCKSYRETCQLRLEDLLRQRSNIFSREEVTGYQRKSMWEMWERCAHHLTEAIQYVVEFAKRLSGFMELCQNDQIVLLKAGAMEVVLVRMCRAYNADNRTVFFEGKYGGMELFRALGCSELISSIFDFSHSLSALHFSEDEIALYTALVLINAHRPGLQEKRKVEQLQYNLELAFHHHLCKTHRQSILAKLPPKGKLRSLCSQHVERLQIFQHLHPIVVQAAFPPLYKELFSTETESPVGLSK

Turning to `O=S(=O)(Nc1ccc(C(O)(C(F)(F)F)C(F)(F)F)cc1)c1cccs1`, the IC50 was > 10 µM (inactive).
